Among the data in patent US12404289B2 (Gilead Sciences, Inc., priority 2020, dated 2025) are EC50 values, retold here.

SMILES strings stand for the structures. pEC50: −log10 of the molar value. Where two headings read alike, the source gives them in different places.

As usually defined, the pEC50 is the negative decadic logarithm of the EC50, by convention in mol/L.

Assay type in all cases: cell-based
Assay [1] has as its system Respiratory syncytial virus (RSV) strain A2. As to the kind of experiment: Hep-2 RSV2 384-well assay (EC50-HEP2-384). The following applies: HEp-2 cells, RSV A2, MOI=4, 4 days.
The test system of the next assay is SARS-CoV-2. As to the kind of experiment: SARS-CoV-2 antiviral assay (A549-hACE2, Nano luciferase). The following applies: A549-hACE2 cells, SARS-CoV2-Nano, MOI 0.025, 48 h, Table 4, read-out: EC50 SARS CoV2.
Assay [2] has as its system Respiratory syncytial virus recombinant with luciferase (RSV-Luc5). As to the kind of experiment: microbe, parasite or virus in culture.
The test system of assay [3] is Recombinant respiratory syncytial virus expressing the firefly luciferase protein (RSV-Fluc). As to the kind of experiment: microbe, parasite or virus in culture. Particulars: Table 4.
Assay [4] deals with Respiratory syncytial virus (RSV) strain A2. As to the kind of experiment: RSV antiviral assay (HEp-2, 96 well). Particulars: Table 3.
The mark [5] stands for this setting: human respiratory syncytial virus, HEp-2, 72 h, read-out: EC50 RSVFluc-Hep2 384, HEp-2 cells, RSV-Luc5, MOI=0.5, 3 days, 384 well, Table 3.
Setting [6] is: read-out: EC50 RSVFluc NHBE 96, NHBE cells, RSV-Fluc, MOI of 0.1, three days, 96 well.
The mark [7] stands for this setting: read-out: EC50 RSVFluc-Hep2 384, HEp-2 cells, RSV-Luc5, MOI=0.5, 3 days, 384 well, Table 3.
The mark [8] stands for this setting: human respiratory syncytial virus, NHBE, 72 h, read-out: EC50 RSVFluc NHBE 96, NHBE cells, RSV-Fluc, MOI of 0.1, three days, 96 well.
[9] abbreviates: Severe acute respiratory syndrome coronavirus 2, 48 h.
Where [10] appears, read: read-out: EC50 RSV HEP2 96, HEp-2 cells, RSV A2, MOI=4, 4 days, 96 well.

Regarding `CC(C)C(=O)O[C@H]1[C@@H](OC(=O)C(C)C)[C@](C#N)(c2ccc3c(N)ncnn23)O[C@@H]1COP(=O)(N[C@@H](C)C(=O)OCC1CC1)Oc1ccc(C(C)(C)C)cc1` (stereo partly drawn) [Example 104b, (2R,3R,4R,5R)-2-(4-aminopyrrolo[2,1-f][1,2,4]triazin-7-yl)-5-((((4-(tert-butyl)phenoxy)(((S)-1-(cyclopropylmethoxy)-1-oxopropan-2-yl)amino)phosphoryl)oxy)methyl)-2-cyanotetrahydrofuran-3,4-diyl bis(2-methylpropanoate)], the pEC50 in assay [1] (Table 3) is 7.24; in the assay on SARS-CoV-2 it was 6.53; in assay [2] (setting [5]) it was 7.64.
Consider `CC(C)C(=O)O[C@H]1[C@@H](OC(=O)C(C)C)[C@](C#N)(c2ccc3c(N)ncnn23)O[C@@H]1COP(=O)(N[C@@H](C)C(=O)OC1CC2(CCC2)C1)Oc1ccccc1` (single isomer, unassigned) [Example 46b], for which the values for the negative-log EC50 (pEC50) (in assay [3] (setting [6]); with SARS-CoV-2; in assay [2] (setting [7])) were 8.18, 6.40 and 7.52, respectively.
The matching figures for `C[C@H](NP(=O)(OC[C@H]1O[C@@](C#N)(c2ccc3c(N)ncnn23)[C@H](O)[C@@H]1O)Oc1ccccc1)C(=O)OC1CC2(CCC2)C1` (single isomer, unassigned) [Example 44b]: 7.90, 6.89 and 7.64.
For `CC(C)C(=O)O[C@H]1[C@@H](OC(=O)C(C)C)[C@](C#N)(c2ccc3c(=N)n(COP(=O)(O)O)cnn23)O[C@@H]1COP(=O)(N[C@@H](C)C(=O)OC1CC2(CCC2)C1)Oc1cccc2ccccc12` (stereo partly drawn) [Example 178, (2R,3R,4R,5R)-2-cyano-2-(4-imino-3-((phosphonooxy)methyl)-3,4-dihydropyrrolo[2,1-f][1,2,4]triazin-7-yl)-5-((((naphthalen-1-yloxy)(((S)-1-oxo-1-(spiro[3.3]heptan-2-yloxy)propan-2-yl)amino)phosphoryl)oxy)methyl)tetrahydrofuran-3,4-diyl bis(2-methylpropanoate)], the negative logarithm of the EC50 (pEC50) is 7.91 in assay [3] (setting [8]), 5.86 with SARS-CoV-2 (setting [9]) and 7.07 in assay [2] (setting [5]).
The matching figures for `CC(C)C(=O)O[C@H]1[C@@H](OC(=O)C(C)C)[C@](C#N)(c2ccc3c(N)ncnn23)O[C@@H]1COP(=O)(N[C@@H](C)C(=O)OC1CC2(CCC2)C1)Oc1ccccc1` (single isomer, unassigned) [Example 46a]: 8.25, 6.60 and 7.52.
On to `CC(=O)O[C@H]1[C@@H](OC(C)=O)[C@](C#N)(c2ccc3c(N)ncnn23)O[C@@H]1COP(=O)(N[C@@H](C)C(=O)OC1CC2(CCC2)C1)Oc1ccccc1` (stereo partly drawn) [Example 45, (2R,3R,4R,5R)-2-(4-aminopyrrolo[2,1-f][1,2,4]triazin-7-yl)-2-cyano-5-((((((S)-1-oxo-1-(spiro[3.3]heptan-2-yloxy)propan-2-yl)amino)(phenoxy)phosphoryl)oxy)methyl)tetrahydrofuran-3,4-diyl Diacetate], for which the negative logarithm of the EC50 (pEC50) in assay [1] (human respiratory syncytial virus, HEp-2, 96 h, Table 3) was 7.51; in assay [3] (setting [8]), 8.28; in the assay with SARS-CoV-2 (setting [9]) it was 6.98; in assay [2] (setting [5]) it was 7.72.
Take `CCC(=O)O[C@H]1[C@@H](OC(=O)CC)[C@](C#N)(c2ccc3c(N)ncnn23)O[C@@H]1COP(=O)(N[C@@H](C)C(=O)OCC(CC)CC)Oc1cccc2ccccc12` (single isomer, unassigned) [Example 79b]: the pEC50 in assay [3] (setting [8]) was 8.20; in assay [4] (setting [10]), 7.66; in the assay with SARS-CoV-2, 7.56; in assay [2] (setting [5]) it was 7.34.
In the case of `CCC(CC)COC(=O)[C@H](C)NP(=O)(OC[C@H]1O[C@@](C#N)(c2ccc3c(N)ncnn23)[C@H](O)[C@@H]1O)Oc1ccc(C(C)(C)C)c2ccccc12` (single isomer, unassigned) [Example 170b], the negative logarithm of the EC50 (pEC50) in the assay on SARS-CoV-2 is 6.03; in assay [2] (setting [7]) it was 6.07.
Regarding `CCC(CC)COC(=O)[C@H](C)NP(=O)(OC[C@H]1O[C@@](C#N)(c2ccc3c(N)ncnn23)[C@H](O)[C@@H]1O)Oc1ccc(C(C)(C)C)cc1` (single isomer, unassigned) [Example 13b], the pEC50 in assay [1] (Table 1) is 7.48; in assay [3] (setting [6]) it was 8.16; with SARS-CoV-2, 6.76; in assay [2] (read-out: EC50 RSVFluc-Hep2 384, HEp-2 cells, RSV-Luc5, MOI=0.5, 3 days, 384 well, One-Glo, Table 1), 7.57.
Consider `CC(C)C(=O)O[C@H]1[C@@H](OC(=O)C(C)C)[C@](C#N)(c2ccc3c(N)ncnn23)O[C@@H]1COP(=O)(N[C@@H](C)C(=O)OC1CC2(CCC2)C1)Oc1cccc2ccccc12` (single isomer, unassigned) [Example 86b], for which the pEC50 in assay [3] (setting [6]) is 8.02; in assay [4] (setting [10]) it was 7.68; in the assay with SARS-CoV-2, 7.63; in assay [2] (setting [7]), 7.55.
With `CCC(CC)COC(=O)[C@H](C)NP(=O)(OC[C@H]1O[C@@](C#N)(c2ccc3c(N)ncnn23)[C@H](OC(C)=O)[C@@H]1OC(C)=O)Oc1ccc(C(C)(C)C)c2ccccc12` (single isomer, unassigned) [Example 171b], the values for the negative-log EC50 (pEC50) (in the assay with SARS-CoV-2; in assay [2] (setting [7])) were 6.38 and 6.27, respectively.
As to `C[C@H](NP(=O)(OC[C@H]1O[C@@](C#N)(c2ccc3c(=N)n(COP(=O)(O)O)cnn23)[C@H](O)[C@@H]1O)Oc1cccc2ccccc12)C(=O)OC1CC2(CCC2)C1` (stereo partly drawn) [Example 177, spiro[3.3]heptan-2-yl ((((2R,3S,4R,5R)-5-cyano-3,4-dihydroxy-5-(4-imino-3-((phosphonooxy)methyl)-3,4-dihydropyrrolo[2,1-f][1,2,4]triazin-7-yl)tetrahydrofuran-2-yl)methoxy)(naphthalen-1-yloxy)phosphoryl)-L-alaninate], the negative logarithm of the EC50 (pEC50) in assay [3] (setting [8]) was 7.80; in the assay on SARS-CoV-2 (setting [9]), 6.39; in assay [2] (setting [5]), 7.77.
`CCC(=O)O[C@H]1[C@@H](OC(=O)CC)[C@](C#N)(c2ccc3c(N)ncnn23)O[C@@H]1COP(=O)(N[C@@H](C)C(=O)OCC(CC)CC)Oc1ccc(C(C)(C)C)c2ccccc12` (single isomer, unassigned) [Example 172b]: the negative logarithm of the EC50 (pEC50) in the assay on SARS-CoV-2 (setting [9]) is 6.06; in assay [2] (setting [7]), 6.21.
In the case of `CCC(CC)COC(=O)[C@H](C)NP(=O)(OC[C@H]1O[C@@](C#N)(c2ccc3c(=N)n(COP(=O)(O)O)cnn23)[C@H](O)[C@@H]1O)Oc1ccc(C(C)(C)C)cc1` (stereo partly drawn) [Example 179, 2-ethylbutyl ((4-(tert-butyl)phenoxy)(((2R,3S,4R,5R)-5-cyano-3,4-dihydroxy-5-(4-imino-3-((phosphonooxy)methyl)-3,4-dihydropyrrolo[2,1-f][1,2,4]triazin-7-yl)tetrahydrofuran-2-yl)methoxy)phosphoryl)-L-alaninate], the negative-log EC50 (pEC50) in assay [3] (setting [8]) is 8.11; in the assay with SARS-CoV-2 (setting [9]) it was 6.07; in assay [2] (setting [5]) it was 7.78.
Regarding `CC(=O)O[C@H]1[C@@H](OC(C)=O)[C@](C#N)(c2ccc3c(N)ncnn23)O[C@@H]1COP(=O)(N[C@@H](C)C(=O)OC1CC2(CCC2)C1)Oc1cccc2ccccc12` (single isomer, unassigned) [Example 83a], the negative-log EC50 (pEC50) in assay [3] (setting [8]) is 8.16; in assay [4] (setting [10]), 7.66; in the assay on SARS-CoV-2 (setting [9]), 7.31; in assay [2] (setting [5]) it was 7.48.
Consider `CCC(CC)COC(=O)[C@H](C)NP(=O)(OC[C@H]1O[C@@](C#N)(c2ccc3c(N)ncnn23)[C@H](O)[C@@H]1O)Oc1ccc(C(C)(C)C)c2ccccc12` (single isomer, unassigned) [Example 170a], for which the pEC50 with SARS-CoV-2 (setting [9]) was 6.02; in assay [2] (setting [5]), 5.85.
Consider `CC(C)C(=O)O[C@H]1[C@@H](OC(=O)C(C)C)[C@](C#N)(c2ccc3c(N)ncnn23)O[C@@H]1COP(=O)(N[C@@H](C)C(=O)OC1CC2(CCC2)C1)Oc1cccc2ccccc12` (single isomer, unassigned) [Example 86a], for which the pEC50 in assay [3] (setting [8]) is 8.10; in assay [4] (human respiratory syncytial virus, HEp-2, 96 h, read-out: EC50 RSV HEP2 96, HEp-2 cells, RSV A2, MOI=4, 4 days, 96 well), 7.67; in the assay with SARS-CoV-2, 6.96; in assay [2] (setting [7]), 7.05.
For the compound `CC(=O)O[C@H]1[C@@H](OC(C)=O)[C@](C#N)(c2ccc3c(N)ncnn23)O[C@@H]1COP(=O)(N[C@@H](C)C(=O)OCC1CC1)Oc1ccc(C(C)(C)C)cc1` (single isomer, unassigned) [Example 102b], the pEC50 in assay [1] (Table 3) is 7.37; in the assay with SARS-CoV-2, 7.07; in assay [2] (setting [7]) it was 7.59.
Take `CCC(CC)COC(=O)[C@H](C)NP(=O)(OC[C@H]1O[C@@](C#N)(c2ccc3c(N)ncnn23)[C@H](OC(C)=O)[C@@H]1OC(C)=O)Oc1ccc(C(C)(C)C)c2ccccc12` (single isomer, unassigned) [Example 171a]: the pEC50 in the assay on SARS-CoV-2 was 6.03; in assay [2] (setting [5]) it was 6.15.
With `C[C@H](NP(=O)(OC[C@H]1O[C@@](C#N)(c2ccc3c(N)ncnn23)[C@H](O)[C@@H]1O)Oc1ccccc1)C(=O)OC1CC2(CCC2)C1` (single isomer, unassigned) [Example 44a], the pEC50 in assay [3] (setting [8]) is 8.04; with SARS-CoV-2 (setting [9]), 6.99; in assay [2] (setting [5]), 7.66.
